Test results from patent US20140120083A1, “TREATMENT OF CANCERS USING PI3 KINASE ISOFORM MODULATORS” (INFINITY PHARMACEUTICALS, INC., priority 2012, published 2014).
“Also recorded” adds a separate entry of the source. Where two headings read alike, the source gives them in different places.

Legend:
[1] = system: PI3K-δ and PI3K-γ; test: Phase 1 study in advanced hematologic malignancies, pharmacodynamics; type: in vivo, human
Method: PK and PD markers were evaluated after the first dose (e.g., 8 mg BID) and at steady state. PD activity (PI3K inhibition) in whole blood was evaluated using a basophil activation assay which measured reduction in CD63 expression on the surface of basophils following ex vivo stimulation.

[2] = target: T1, human P-glycoprotein (Homo sapiens, UniProt P08183); test: Interaction with P-glycoprotein, Caco-2; type: in vitro ADME; conditions: Caco-2 cell monolayers
T1 construct: endogenous in cells; host or cells: Caco-2
T1 sequence (P08183 whole entry): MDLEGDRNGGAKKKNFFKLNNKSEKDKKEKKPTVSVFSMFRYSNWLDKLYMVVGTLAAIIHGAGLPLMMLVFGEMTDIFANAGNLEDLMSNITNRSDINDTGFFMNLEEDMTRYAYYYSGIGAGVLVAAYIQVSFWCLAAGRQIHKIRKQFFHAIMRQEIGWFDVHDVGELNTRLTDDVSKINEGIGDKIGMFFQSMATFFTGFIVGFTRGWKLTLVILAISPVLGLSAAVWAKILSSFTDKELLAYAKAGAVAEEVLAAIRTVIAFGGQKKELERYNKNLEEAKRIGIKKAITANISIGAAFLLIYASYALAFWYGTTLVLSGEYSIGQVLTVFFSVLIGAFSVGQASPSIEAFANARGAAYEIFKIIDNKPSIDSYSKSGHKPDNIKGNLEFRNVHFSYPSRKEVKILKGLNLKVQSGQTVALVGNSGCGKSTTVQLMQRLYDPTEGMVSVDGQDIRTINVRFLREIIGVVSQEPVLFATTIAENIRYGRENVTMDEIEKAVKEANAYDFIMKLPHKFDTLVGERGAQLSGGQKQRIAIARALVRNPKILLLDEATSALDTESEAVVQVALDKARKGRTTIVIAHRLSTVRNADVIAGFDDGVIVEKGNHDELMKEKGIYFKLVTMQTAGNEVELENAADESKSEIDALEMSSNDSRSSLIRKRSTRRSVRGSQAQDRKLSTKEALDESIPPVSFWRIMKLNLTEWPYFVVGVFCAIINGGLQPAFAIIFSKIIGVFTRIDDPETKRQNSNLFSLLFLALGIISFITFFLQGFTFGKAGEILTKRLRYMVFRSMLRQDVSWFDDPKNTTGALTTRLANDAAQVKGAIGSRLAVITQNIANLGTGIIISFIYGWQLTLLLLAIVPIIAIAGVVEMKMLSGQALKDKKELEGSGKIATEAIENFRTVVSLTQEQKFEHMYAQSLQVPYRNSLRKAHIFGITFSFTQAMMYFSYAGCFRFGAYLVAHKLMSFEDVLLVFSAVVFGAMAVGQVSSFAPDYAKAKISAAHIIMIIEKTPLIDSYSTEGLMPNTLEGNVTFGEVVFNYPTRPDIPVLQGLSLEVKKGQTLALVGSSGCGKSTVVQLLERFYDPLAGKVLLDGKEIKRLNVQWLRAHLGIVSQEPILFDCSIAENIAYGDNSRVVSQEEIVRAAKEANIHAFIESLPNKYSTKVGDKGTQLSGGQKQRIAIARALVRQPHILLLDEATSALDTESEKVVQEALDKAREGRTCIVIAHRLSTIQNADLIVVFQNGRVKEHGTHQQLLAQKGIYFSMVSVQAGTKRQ

[3] = Pharmacokinetics, monkey; type: in vivo, Cynomolgus monkeys
[4] = system: TNF-α and IL-10 production; test: Cytokine production in diluted whole blood stimulated with LPS; type: cell-based; conditions: diluted whole blood (1:1), 24 hours pre-treatment, 100 μg/mL LPS
Method: Serum concentrations of a panel of human cytokines/chemokines were determined by Milliplex 96-well immuno-assay as described below.

[5] = In vitro genetic toxicity studies
[6] = Phase 1 study in advanced hematologic malignancies, safety
[7] = system: hemodynamic and electrocardiographic parameters; test: Cardiovascular telemetry study; type: in vivo, cynomolgus monkey; conditions: male monkeys
Description: Four non-naive, male monkeys implanted with radiotelemetry transmitters were utilized during the conduct of this study.

[8] = Clinical study in healthy adult subjects, pharmacokinetics; type: in vivo, human; conditions: for AUC(0-24) / AUC(0-inf) / Cmax / T1/2 / half-life / AUC: mean (% CV); for AUC: read-out: AUC(0-tau)
[9] = target: PI3K δ (Homo sapiens, UniProt O00329); test: Clinical study in healthy subjects, basophil activation (CD63 on CCR3+ basophils, ex vivo anti-FcεR1); design: from tissue; host or cells: human whole blood (basophils)
PI3K δ, sequence (O00329 whole entry): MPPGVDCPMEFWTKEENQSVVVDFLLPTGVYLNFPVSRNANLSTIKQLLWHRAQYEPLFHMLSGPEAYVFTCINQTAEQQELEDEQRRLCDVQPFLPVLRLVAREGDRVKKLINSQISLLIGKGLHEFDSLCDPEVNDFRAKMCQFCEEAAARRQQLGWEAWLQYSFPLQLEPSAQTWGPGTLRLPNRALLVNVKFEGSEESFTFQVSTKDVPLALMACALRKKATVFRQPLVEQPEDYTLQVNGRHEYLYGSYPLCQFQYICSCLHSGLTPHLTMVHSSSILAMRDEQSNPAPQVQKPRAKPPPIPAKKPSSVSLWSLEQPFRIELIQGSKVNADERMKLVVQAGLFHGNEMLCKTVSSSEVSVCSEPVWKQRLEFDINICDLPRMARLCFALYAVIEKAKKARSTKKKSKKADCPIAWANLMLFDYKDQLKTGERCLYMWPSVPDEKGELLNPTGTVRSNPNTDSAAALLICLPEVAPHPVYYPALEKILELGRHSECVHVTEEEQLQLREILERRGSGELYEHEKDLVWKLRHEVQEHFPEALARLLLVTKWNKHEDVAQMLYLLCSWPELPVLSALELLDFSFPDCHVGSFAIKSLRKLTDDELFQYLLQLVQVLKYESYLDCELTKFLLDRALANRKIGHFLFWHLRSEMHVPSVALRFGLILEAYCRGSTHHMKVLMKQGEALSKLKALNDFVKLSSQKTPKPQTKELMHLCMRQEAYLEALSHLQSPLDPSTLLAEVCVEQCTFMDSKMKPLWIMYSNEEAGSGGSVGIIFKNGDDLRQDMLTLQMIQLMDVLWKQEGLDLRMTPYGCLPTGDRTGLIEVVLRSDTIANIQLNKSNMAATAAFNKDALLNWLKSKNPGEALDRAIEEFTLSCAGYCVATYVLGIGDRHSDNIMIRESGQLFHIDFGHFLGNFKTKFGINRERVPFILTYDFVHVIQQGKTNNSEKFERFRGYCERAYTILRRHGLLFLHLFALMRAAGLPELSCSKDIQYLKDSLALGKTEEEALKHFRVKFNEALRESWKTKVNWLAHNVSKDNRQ
PI3K δ, sequence (P27986 whole entry partner): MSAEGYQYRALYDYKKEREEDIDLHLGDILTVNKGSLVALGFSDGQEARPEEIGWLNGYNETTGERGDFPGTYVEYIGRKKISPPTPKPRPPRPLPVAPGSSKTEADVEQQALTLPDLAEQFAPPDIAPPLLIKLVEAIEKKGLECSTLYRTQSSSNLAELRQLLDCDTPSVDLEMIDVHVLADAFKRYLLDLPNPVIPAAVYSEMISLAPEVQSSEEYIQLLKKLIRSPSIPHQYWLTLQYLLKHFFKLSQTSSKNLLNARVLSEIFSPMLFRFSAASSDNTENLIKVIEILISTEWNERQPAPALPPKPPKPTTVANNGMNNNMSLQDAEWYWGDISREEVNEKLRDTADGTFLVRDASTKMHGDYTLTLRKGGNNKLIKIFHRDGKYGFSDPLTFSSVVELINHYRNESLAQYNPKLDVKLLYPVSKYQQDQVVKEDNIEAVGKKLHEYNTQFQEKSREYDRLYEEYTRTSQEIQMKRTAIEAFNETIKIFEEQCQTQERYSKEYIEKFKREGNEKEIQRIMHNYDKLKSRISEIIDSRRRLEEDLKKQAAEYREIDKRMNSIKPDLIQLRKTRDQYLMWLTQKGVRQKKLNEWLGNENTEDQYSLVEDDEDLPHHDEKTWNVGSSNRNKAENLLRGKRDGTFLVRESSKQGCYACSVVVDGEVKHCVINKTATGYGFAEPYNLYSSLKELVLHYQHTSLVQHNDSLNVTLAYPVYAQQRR

[10] = DDI portion, 200 mg q12h ketoconazole
[11] = human, plasma, oral, 1 mg, 1 mg Q12 h, Day 1
[12] = human, plasma, oral, 1 mg, 1 mg Q12 h, Day 14
[13] = human, plasma, oral, 2 mg, 2 mg Q12 h, Day 1
[14] = human, plasma, oral, 2 mg, 2 mg Q12 h, Day 14
[15] = human, plasma, oral, 5 mg, 5 mg Q12 h, Day 1
[16] = human, plasma, oral, 5 mg, 5 mg Q12 h, Day 14
[17] = human, plasma, oral, 10 mg, 10 mg Q24 h, Day 1
[18] = human, plasma, oral, 10 mg, 10 mg Q24 h, Day 14

Question: Which results are given for `C[C@H](Nc1ncnc2[nH]cnc12)c1cc2cccc(Cl)c2c(=O)n1-c1ccccc1` [Compound 292]?
Answer: AKT phosphorylation in CLL/SLL cells ([1]; flow cytometry, after one dose (25 mg)): rapid and sustained inhibition; doses achieving complete inhibition of PI3K-δ ([1]; patients): ≥ 15 mg BID; doses increasingly suppressing PI3K-γ ([1]; patients): ≥ 25 mg BID; P-gp substrate [2]: is a P-gp substrate; inhibition of P-gp transport [2]: has the potential to inhibit the active transport of other P-gp substrates; clearance ([3]; monkey): low to moderate; volume of distribution ([3]; monkey): high; AUC0-last ([3]; monkey, IV, 1 mg/kg): 2357 ng·h/mL; AUC(0-inf) ([3]; monkey, IV, 1 mg/kg): 2379 ng·h/mL; Cl ([3]; monkey, IV, 1 mg/kg): 7.17 mL/min/kg; Cmax ([3]; monkey, IV, 1 mg/kg): 1545 ng/mL; T1/2 ([3]; monkey, IV, 1 mg/kg): 5.0 h; Tmax ([3]; monkey, IV, 1 mg/kg): 0.083 h; Vss ([3]; monkey, IV, 1 mg/kg): 1.27 L/kg; AUC0-last ([3]; monkey, PO, 5 mg/kg): 4596 ng·h/mL; AUC(0-inf) ([3]; monkey, PO, 5 mg/kg): 4685 ng·h/mL; Cmax ([3]; monkey, PO, 5 mg/kg): 1327 ng/mL; Foral ([3]; monkey, PO, 5 mg/kg): 40%; T1/2 ([3]; monkey, PO, 5 mg/kg): 5.4 h; Tmax ([3]; monkey, PO, 5 mg/kg): 1.5 h; half-life ([3]; monkeys): 5 h; IL-10 production [4]: inhibition; TNF-α production [4]: inhibition; genetic toxicity [5]: no genetic toxicity; dose limiting toxicity ([6]; 15 mg BID dose cohort): Grade 4 neutropenia; AE Leading to Discontinuation ([6]; 25 mg BID (n = 34)): 2 n; Any AE ([6]; 25 mg BID (n = 34)): 27 n; Any AE Grade 3 ([6]; 25 mg BID (n = 34)): 7 n; Any AE Grade 4 ([6]; 25 mg BID (n = 34)): 5 n; Deaths on Study ([6]; 25 mg BID (n = 34)): 0 n; Dose Reduced (New Grade 3/4 ALT) ([6]; 25 mg BID (n = 34)): 3 n; Dose Reduced (New Grade 3/4 ANC) ([6]; 25 mg BID (n = 34)): 2 n; New Grade 3 ALT ([6]; 25 mg BID (n = 34)): 3 n; New Grade 3 ANC ([6]; 25 mg BID (n = 34)): 2 n; New Grade 4 ANC ([6]; 25 mg BID (n = 34)): 4 n; Related AE ([6]; 25 mg BID (n = 34)): 18 n; Related Grade 3 AE ([6]; 25 mg BID (n = 34)): 4/4 n; Related Grade 4 AE ([6]; 25 mg BID (n = 34)): 4/4 n; SAE ([6]; 25 mg BID (n = 34)): 4 n; dose limiting toxicity ([6]; 75 mg BID): Grade 3 cellulitis; new Grade>3 neutropenia, n (%) ([6]; 20 patients, 8-50 mg BID): 6 (30%); new Grade>3 thrombocytopenia, n (%) ([6]; 20 patients, 8-50 mg BID): 1 (5%); patients with AEs Grade>3 ([6]; 20 patients, 8-50 mg BID): 7 (35%); patients with adverse events ([6]; 20 patients, 8-50 mg BID): 13 (65%); patients with treatment-related AEs ([6]; 20 patients, 8-50 mg BID): 11 patients; patients with treatment-related AEs Grade>3 ([6]; 20 patients, 8-50 mg BID): 5 patients; Grade 3 ALT/AST elevations, n (%) ([6]; 20 patients, 8-50 mg BID, MM patient): 1 (5%); AE Leading to Discontinuation ([6]; Safety Population (n = 55)): 3 n; Any AE ([6]; Safety Population (n = 55)): 46 n; Any AE Grade 3 ([6]; Safety Population (n = 55)): 18 n; Any AE Grade 4 ([6]; Safety Population (n = 55)): 8 n; Deaths on Study ([6]; Safety Population (n = 55)): 3 n; Dose Reduced (New Grade 3/4 ALT) ([6]; Safety Population (n = 55)): 6 n; Dose Reduced (New Grade 3/4 ANC) ([6]; Safety Population (n = 55)): 5 n; New Grade 3 ALT ([6]; Safety Population (n = 55)): 5 n; New Grade 3 ANC ([6]; Safety Population (n = 55)): 10 n; New Grade 4 ANC ([6]; Safety Population (n = 55)): 5 n; Related AE ([6]; Safety Population (n = 55)): 31 n; Related Grade 3 AE ([6]; Safety Population (n = 55)): 14 n; Related Grade 4 AE ([6]; Safety Population (n = 55)): 6 n; SAE ([6]; Safety Population (n = 55)): 11 n; MTD ([6]; after dose escalation to 75 mg BID): not yet reached; tolerability ([6]; patients with advanced hematologic malignancies): well tolerated; also recorded: well-tolerated; hemodynamic or electrocardiographic parameters ([7]; single oral dose of 5, 30, and 150 mg/kg): No Compound 292-related effects; waveform abnormalities or arrhythmias ([7]; up to 150 mg/kg oral): no waveform abnormalities or arrhythmias; AUC(0-24) ([8]; 1 mg single dose): 149 (67) ng * hr/mL; AUC(0-inf) ([8]; 1 mg single dose): 151 (68) ng * hr/mL; Cmax ([8]; 1 mg single dose): 43.4 (31) ng/mL; T1/2 ([8]; 1 mg single dose): 3.52 (29) hr; AUC(0-24) ([8]; 2 mg single dose): 289 (43) ng * hr/mL; AUC(0-inf) ([8]; 2 mg single dose): 296 (44) ng * hr/mL; Cmax ([8]; 2 mg single dose): 78.8 (16) ng/mL; T1/2 ([8]; 2 mg single dose): 5.43 (25) hr; AUC(0-24) ([8]; 5 mg single dose): 733 (5) ng * hr/mL; AUC(0-inf) ([8]; 5 mg single dose): 743 (5) ng * hr/mL; Cmax ([8]; 5 mg single dose): 246 (16) ng/mL; T1/2 ([8]; 5 mg single dose): 5.43 (10) hr; AUC(0-24) ([8]; 10 mg single dose): 891 (14) ng * hr/mL; AUC(0-inf) ([8]; 10 mg single dose): 914 (14) ng * hr/mL; Cmax ([8]; 10 mg single dose): 454 (40) ng/mL; T1/2 ([8]; 10 mg single dose): 9.47 (38) hr; AUC(0-24) ([8]; 20 mg single dose): 2193 (16) ng * hr/mL; AUC(0-inf) ([8]; 20 mg single dose): 2250 (16) ng * hr/mL; Cmax ([8]; 20 mg single dose): 997 (32) ng/mL; T1/2 ([8]; 20 mg single dose): 7.79 (51) hr; AUC(0-24) ([8]; 30 mg single dose): 3263 (38) ng * hr/mL; AUC(0-inf) ([8]; 30 mg single dose): 3395 (38) ng * hr/mL; Cmax ([8]; 30 mg single dose): 1140 (38) ng/mL; T1/2 ([8]; 30 mg single dose): 8.12 (18) hr; increase of AUC0-inf in the presence of ketoconazole [8, 10]: ~295%; increase of AUC0-last in the presence of ketoconazole [8, 10]: ~285%; increase of Cmax in the presence of ketoconazole [8, 10]: approximately 66%; excretion of unchanged compound in urine ([8]; healthy subjects): < 2 % of the administered dose; accumulation ([8]; healthy subjects, 14 days of Q12 h oral administration): less than 2 fold; half-life [8, 11]: 3.46 h; AUC [8, 11]: 124 ng·h/mL; Cmax ([8]; human, plasma, oral, 1 mg, 1 mg Q12 h, Day 1, read-out: Cmax): 49.1 ng/mL; half-life [8, 12]: 6.46 h; AUC [8, 12]: 199 ng·h/mL; Cmax ([8]; human, plasma, oral, 1 mg, 1 mg Q12 h, Day 14, read-out: Cmax): 66.8 ng/mL; half-life [8, 13]: 6.34 h; AUC [8, 13]: 290 ng·h/mL; Cmax ([8]; human, plasma, oral, 2 mg, 2 mg Q12 h, Day 1, read-out: Cmax): 101 ng/mL; half-life [8, 14]: 9.75 h; AUC [8, 14]: 524 ng·h/mL; Cmax ([8]; human, plasma, oral, 2 mg, 2 mg Q12 h, Day 14, read-out: Cmax): 140 ng/mL; half-life [8, 15]: 5.76 h; AUC [8, 15]: 774 ng·h/mL; Cmax ([8]; human, plasma, oral, 5 mg, 5 mg Q12 h, Day 1, read-out: Cmax): 257 ng/mL; half-life [8, 16]: 8.32 h; AUC [8, 16]: 1290 ng·h/mL; Cmax ([8]; human, plasma, oral, 5 mg, 5 mg Q12 h, Day 14, read-out: Cmax): 355 ng/mL; half-life [8, 17]: 6 h; AUC [8, 17]: 1530 ng·h/mL; Cmax ([8]; human, plasma, oral, 10 mg, 10 mg Q24 h, Day 1, read-out: Cmax): 553 ng/mL; half-life [8, 18]: 11.7 h; AUC [8, 18]: 2230 ng·h/mL; Cmax ([8]; human, plasma, oral, 10 mg, 10 mg Q24 h, Day 14, read-out: Cmax): 605 ng/mL; AUC(0-t) ([8]; human, plasma, healthy subjects, 5 mg BID, 14 days of oral dosing, read-out: mean AUC0-24 hr): 2580 ng·h/mL; basophil activation (CD63 expression on CCR3+ basophils) ([9]; all single and multiple dose levels): dose-dependent reduction; also recorded: reduced in a dose-dependent manner; dose at which maximal PD response was achieved ([9]; single dose): 5 mg
